From US9499509B2, “Dihydrochalcone derivatives and their use as antibiotic agents” (UNIVERSITÉ DU QUÉBEC À CHICOUTIMI, priority 2012, dated 2016)
In brackets after ≈: the same amount, converted by molar mass. Read-outs that look alike come from different tables or passages of the source.

Experiments:
MRSA strains = test: Antibiotic assay (absorption 660 nm, Example 2), MRSA strains; format: cell-based, Staphylococcus aureus
Description: (§1) Antibiotic agents. Gentamicin sulfate was provided by Calbiochem. Chloramphenicol was provided by Sigma-Aldrich.
(§2) Antibiotic assay. […] The bacteria strains were inoculated in nutrients broth. […] All bacteria were plated in nutrients broth at a concentration of 450 000 bacteria/m L.
(§3) Compounds IV to XXI were diluted in dimethylsulfoxide. […] The compounds were tested at 8 different concentrations.
(§4) Each well contained: 100 μL of bacteria, 100 μL of the compounds tested. The plates were incubated at 37° C. for 6 h. The absorption was read using a Varioskan flash multimode Reader™ (Thermo Scientific) at 660 nm.
(§5) MRSA. Ten (10) strains of MRSA obtained as described above were tested along with an S. aureus wild type (WT) strain (ATCC 25923).

[1] = tested on: S. aureus wild type strain (ATCC 25923); test: Antibiotic assay (absorption 660 nm, Example 2), S. aureus wild type; format: cell-based, Staphylococcus aureus; conditions: for MIC: S. aureus WT (ATCC 25923); for S. aureus WT ATCC 25923 (toxicity on bacteria): Table 7, same values as MIC of Table 6
Description: as §1, §2, §3, §4, §5

WS-1 cell lines = test: Cytotoxicity assay on WS-1 (Example 2); format: cell-based; parameters: unit not given here; conditions: Table 7; WS-1, 48 h
Description: Cytotoxicity assay. […] The WS-1 cell lines were provided by ATCC. […] The compounds tested were then added at 8 different concentrations. […] In Table 7, the therapeutic indexes of compounds IV to XXI are presented.

S. aureus = test: Antibiotic assay (resazurin, Example 1), S. aureus strains of Table 3; format: cell-based, Staphylococcus aureus; conditions: for IC50: read-out: IC50
Excerpt: (§6) Bacteria Strain. […] The MRSA were obtained as further described below.
(§7) Antibiotic agents. Cyprofloxacin and erythromycin were provided by Sigma-Aldrich. Gentamicin sulfate and vancomycin hydrochloride were provided by Calbiochem.

Streptococcus pneumoniae = test: Antibiotic assay (resazurin, Example 1), Streptococcus pneumoniae; format: cell-based; conditions: for IC50: read-out: IC50
Description: as §6, §7
(§8) Five additional strains were tested: Streptococcus pneumoniae, Streptococcus agalactiae, Streptococcus pyogenes, Enterococcus faecalis and Corynebacterium jeikeium.

Enterococcus faecalis = test: Antibiotic assay (resazurin, Example 1), Enterococcus faecalis; format: cell-based; conditions: for IC50: read-out: IC50
Description: as §6, §7, §8

Corynebacterium jeikeium = test: Antibiotic assay (resazurin, Example 1), Corynebacterium jeikeium; format: cell-based; conditions: Coryne. jeikeium 14139
Description: as §6, §7, §8

Streptococcus pyogenes = test: Antibiotic assay (resazurin, Example 1), Streptococcus pyogenes; format: cell-based; conditions: for IC50: read-out: IC50
Description: as §6, §7, §8

Streptococcus agalactiae = test: Antibiotic assay (resazurin, Example 1), Streptococcus agalactiae; format: cell-based; conditions: for IC50: read-out: IC50
Description: as §6, §7, §8

[2] = tested on: S. aureus wild type strain (ATCC25923); test: Antibiotic assay of extracts and fractions (resazurin, Example 6), S. aureus wild type; format: cell-based, Staphylococcus aureus; conditions: S. aureus WT
Excerpt: (§9) Antibiotic agents. Gentamicin sulfate was provided by Calbiochem.

E. coli (ATCC25922) = test: Antibiotic assay of extracts and fractions (resazurin, Example 6), E. coli; format: cell-based
Excerpt: as §9

MRSAs (1, 2 and 3) = test: Antibiotic assay of extracts and fractions (resazurin, Example 6), MRSA 1, 2 and 3; format: cell-based, Staphylococcus aureus
Excerpt: as §9

S. epidermidis = test: Antibiotic assay (resazurin, Example 1), S. epidermidis strains
Description: The antibiotic assays were performed in 96-well plates (BD Falcon). The bacteria strains were inoculated in Nutrient Broth (BD) for the gram negative bacteria and Tryptic soy broth (BD) with 10% of defibrinated sheep blood (PML microbiological) for gram positive strain. All bacteria strains were dosed by spectrophotometry at 660 nm where 1 D.O=2×10^8 bacteria/mL. All bacteria were plated in their respective broth at a concentration of 450 000 bacteria/mL.
Compounds I, II and III were diluted in methanol and the above-noted antibiotic agents were diluted in water. The solvent concentration was 0.25%, which was not toxic for the bacteria. Compounds I, II and III and the above-noted antibiotic agents were tested at 8 different concentrations.
Each well contained: 100 μL of bacteria, 50 μL of the compounds tested (compound I, II, III or the above-noted antibiotic agent) and 50 μL of a 4% resazurin (Sigma) solution. The plates were incubated at 37° C. for 5 h. The fluorescence was read using a Fluoroskan Ascent™ FL (thermo) using an excitation wavelength of 530 nm and an emission wavelength of 590 nm.
Two different strains of Staphylococcus were tested, namely the S. epidermidis and the S. aureus strains.

COc1ccc(CCC(=O)c2c(O)cc(O)c3c2OC(c2ccc(O)cc2)C(O)C3)cc1 (centres unmarked) [XXI]
MIC (MRSA strains; MRSA 1): 17 ± 2 µM (≈ 7.42 µg/mL) | MIC (MRSA strains; MRSA 2): 7 ± 2 µM (≈ 3.06 µg/mL) | MIC (MRSA strains; MRSA 3): 8.5 ± 0.6 µM (≈ 3.71 µg/mL) | MIC (MRSA strains; MRSA 4): 12.3 ± 0.5 µM (≈ 5.37 µg/mL) | MIC (MRSA strains; MRSA 5): 7.7 ± 0.6 µM (≈ 3.36 µg/mL) | MIC (MRSA strains; MRSA 6): 12 ± 1 µM (≈ 5.24 µg/mL) | MIC (MRSA strains; MRSA 7): 11.4 ± 0.5 µM (≈ 4.98 µg/mL) | MIC (MRSA strains; MRSA 8): 8.2 ± 0.2 µM (≈ 3.58 µg/mL) | MIC (MRSA strains; MRSA 9): 10.8 ± 0.8 µM (≈ 4.71 µg/mL) | MIC (MRSA strains; MRSA 10): 12 ± 1 µM (≈ 5.24 µg/mL) | MIC [1]: 28 ± 2 µM (≈ 12.2 µg/mL) | S. aureus WT ATCC 25923 (toxicity on bacteria) [1]: 28 ± 2 | WS-1 (toxicity on normal cells, fibroblast) (WS-1 cell lines): >50

COc1ccc(CCC(=O)c2c(O)cc(O)c3c2OC(c2ccc(O)cc2)C(O)C3)cc1 (centres unmarked) [XX]
MIC (MRSA strains; MRSA 1): 14 ± 1 µM (≈ 6.11 µg/mL) | MIC (MRSA strains; MRSA 2): 11.4 ± 0.5 µM (≈ 4.98 µg/mL) | MIC (MRSA strains; MRSA 3): 8.9 ± 0.3 µM (≈ 3.88 µg/mL) | MIC (MRSA strains; MRSA 4): 7.6 ± 0.2 µM (≈ 3.32 µg/mL) | MIC (MRSA strains; MRSA 5): 3.8 ± 0.3 µM (≈ 1.66 µg/mL) | MIC (MRSA strains; MRSA 6): 11.2 ± 1.0 µM (≈ 4.89 µg/mL) | MIC (MRSA strains; MRSA 7): 12.1 ± 0.7 µM (≈ 5.28 µg/mL) | MIC (MRSA strains; MRSA 8): 7.0 ± 1.0 µM (≈ 3.06 µg/mL) | MIC (MRSA strains; MRSA 9): 12 ± 1 µM (≈ 5.24 µg/mL) | MIC (MRSA strains; MRSA 10): 12.6 ± 0.3 µM (≈ 5.5 µg/mL) | MIC [1]: 14.0 ± 0.8 µM (≈ 6.11 µg/mL) | S. aureus WT ATCC 25923 (toxicity on bacteria) [1]: 14.0 ± 0.8 | WS-1 (toxicity on normal cells, fibroblast) (WS-1 cell lines): >50

Gentamicin sulfate [reference compound]
Minimum Inhibitory Concentration (MIC) (S. aureus; S. aureus 14094): (0.04) μM | IC50 (S. aureus; S. aureus 14094): < 6 nM | Minimum Inhibitory Concentration (MIC) (S. aureus; S. aureus 14108): (0.05) μM | IC50 (S. aureus; S. aureus 14108): 16 ± 3 nM | Minimum Inhibitory Concentration (MIC) (S. aureus; S. aureus 14118): (0.02) μM | IC50 (S. aureus; S. aureus 14118): 8 ± 1 nM | Minimum Inhibitory Concentration (MIC) (S. aureus; S. aureus 14154): (0.04) μM | IC50 (S. aureus; S. aureus 14154): < 16 nM | Minimum Inhibitory Concentration (MIC) (Streptococcus pneumoniae; Strep. pneumoniae 14070): (>20) μM | IC50 (Streptococcus pneumoniae; Strep. pneumoniae 14070): 4000 ± 2000 nM | Minimum Inhibitory Concentration (MIC) (Streptococcus pneumoniae; Strep. pneumoniae 14112): (>20) μM | IC50 (Streptococcus pneumoniae; Strep. pneumoniae 14112): > 20000 nM | Minimum Inhibitory Concentration (MIC) (Streptococcus pneumoniae; Strep. pneumoniae 14138): (>20) μM | IC50 (Streptococcus pneumoniae; Strep. pneumoniae 14138): > 20000 nM | Minimum Inhibitory Concentration (MIC) (Streptococcus pneumoniae; Strep. pneumoniae 14144): (>20) μM | IC50 (Streptococcus pneumoniae; Strep. pneumoniae 14144): > 20000 nM | Minimum Inhibitory Concentration (MIC) (Streptococcus pneumoniae; Strep. pneumoniae 14148): (>20) μM | IC50 (Streptococcus pneumoniae; Strep. pneumoniae 14148): > 20000 nM | Minimum Inhibitory Concentration (MIC) (Enterococcus faecalis; Ent. Faecalis 14078): (>20) μM | IC50 (Enterococcus faecalis; Ent. Faecalis 14078): 11000 ± 1000 nM | Minimum Inhibitory Concentration (MIC) (Enterococcus faecalis; Ent. Faecalis 14115): (>20) μM | IC50 (Enterococcus faecalis; Ent. Faecalis 14115): > 20000 nM | Minimum Inhibitory Concentration (MIC) (Corynebacterium jeikeium): (9.1) μM | IC50 (Corynebacterium jeikeium; read-out: IC50): 920 ± 70 nM | Minimum Inhibitory Concentration (MIC) (Streptococcus pyogenes; Strep. pyogenes 14149): (>20) μM | IC50 (Streptococcus pyogenes; Strep. pyogenes 14149): > 20000 nM | Minimum Inhibitory Concentration (MIC) (Streptococcus pyogenes; Strep. pyogenes 14152): (>20) μM | IC50 (Streptococcus pyogenes; Strep. pyogenes 14152): > 20000 nM | Minimum Inhibitory Concentration (MIC) (Streptococcus agalactiae; Strep. agalactiae 14150): (>20) μM | IC50 (Streptococcus agalactiae; Strep. agalactiae 14150): > 20000 nM | Minimum Inhibitory Concentration (MIC) (Streptococcus agalactiae; Strep. agalactiae 14151): (>20) μM | IC50 (Streptococcus agalactiae; Strep. agalactiae 14151): > 20000 nM | Minimum Inhibitory Concentration (MIC) (Streptococcus agalactiae; Strep. agalactiae 14153): (>20) μM | IC50 (Streptococcus agalactiae; Strep. agalactiae 14153): > 20000 nM | IC50 [2]: <5 ng/mL | MIC [2]: <5 ng/mL | IC50 (E. coli (ATCC25922)): 9 ± 1 ng/mL | MIC (E. coli (ATCC25922)): 19 ng/mL | IC50 (MRSAs (1, 2 and 3); MRSA 1): <5 ng/mL | MIC (MRSAs (1, 2 and 3); MRSA 1): <5 ng/mL | IC50 (MRSAs (1, 2 and 3); MRSA 2): <5 ng/mL | MIC (MRSAs (1, 2 and 3); MRSA 2): <5 ng/mL | IC50 (MRSAs (1, 2 and 3); MRSA 3): 6 ± 0.4 ng/mL | MIC (MRSAs (1, 2 and 3); MRSA 3): 19 ng/mL | IC50 (S. epidermidis; S. epidermidis 14069): < 6 nM | Minimum Inhibitory Concentration (MIC) (S. epidermidis; S. epidermidis 14069): (2.51) μM | IC50 (S. epidermidis; S. epidermidis 14085): < 6 nM | Minimum Inhibitory Concentration (MIC) (S. epidermidis; S. epidermidis 14085): (1.19) μM | IC50 (S. epidermidis; S. epidermidis 14093): < 6 nM | Minimum Inhibitory Concentration (MIC) (S. epidermidis; S. epidermidis 14093): (1.25) μM | IC50 (S. epidermidis; S. epidermidis 14134): 130 ± 10 nM | Minimum Inhibitory Concentration (MIC) (S. epidermidis; S. epidermidis 14134): (0.8) μM | IC50 (S. epidermidis; S. epidermidis 14143): 200 ± 30 nM | Minimum Inhibitory Concentration (MIC) (S. epidermidis; S. epidermidis 14143): (>2) μM
